Assay [1] deals with T1, c-kit (Homo sapiens, UniProt P10721).
T1 construct: MO7e (human megakaryocytic leukemia cell line) which had been arrested for 20 hr; endogenous in cells; host or cells: MO7e human megakaryocytic leukemia cell line
Briefly: Inhibitory activity against c-kit autophosphorylation (MO7e cells, h-SCF). The format is cell-based. The following applies: MO7e cells, h-SCF 50 ng/ml; read-out: c-kit IC50. The method, boiled down:
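MO7e cells, arrested for 20 hr, were pretreated with test compound in DMSO for 1 hr and then stimulated with 50 ng/ml h-SCF for 5 min before lysis. Lysates were captured on immobilized anti-phosphotyrosine PY-20, probed with anti-c-kit antibody and HRP anti-rabbit IgG, and read colorimetrically at 450 nm.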

Assay [2] deals with T2, PDGF-Ra (Homo sapiens, UniProt P16234).
T2 construct: host or cells: G-292 human osteosarcoma cells
T2 sequence (P16234 24-1089): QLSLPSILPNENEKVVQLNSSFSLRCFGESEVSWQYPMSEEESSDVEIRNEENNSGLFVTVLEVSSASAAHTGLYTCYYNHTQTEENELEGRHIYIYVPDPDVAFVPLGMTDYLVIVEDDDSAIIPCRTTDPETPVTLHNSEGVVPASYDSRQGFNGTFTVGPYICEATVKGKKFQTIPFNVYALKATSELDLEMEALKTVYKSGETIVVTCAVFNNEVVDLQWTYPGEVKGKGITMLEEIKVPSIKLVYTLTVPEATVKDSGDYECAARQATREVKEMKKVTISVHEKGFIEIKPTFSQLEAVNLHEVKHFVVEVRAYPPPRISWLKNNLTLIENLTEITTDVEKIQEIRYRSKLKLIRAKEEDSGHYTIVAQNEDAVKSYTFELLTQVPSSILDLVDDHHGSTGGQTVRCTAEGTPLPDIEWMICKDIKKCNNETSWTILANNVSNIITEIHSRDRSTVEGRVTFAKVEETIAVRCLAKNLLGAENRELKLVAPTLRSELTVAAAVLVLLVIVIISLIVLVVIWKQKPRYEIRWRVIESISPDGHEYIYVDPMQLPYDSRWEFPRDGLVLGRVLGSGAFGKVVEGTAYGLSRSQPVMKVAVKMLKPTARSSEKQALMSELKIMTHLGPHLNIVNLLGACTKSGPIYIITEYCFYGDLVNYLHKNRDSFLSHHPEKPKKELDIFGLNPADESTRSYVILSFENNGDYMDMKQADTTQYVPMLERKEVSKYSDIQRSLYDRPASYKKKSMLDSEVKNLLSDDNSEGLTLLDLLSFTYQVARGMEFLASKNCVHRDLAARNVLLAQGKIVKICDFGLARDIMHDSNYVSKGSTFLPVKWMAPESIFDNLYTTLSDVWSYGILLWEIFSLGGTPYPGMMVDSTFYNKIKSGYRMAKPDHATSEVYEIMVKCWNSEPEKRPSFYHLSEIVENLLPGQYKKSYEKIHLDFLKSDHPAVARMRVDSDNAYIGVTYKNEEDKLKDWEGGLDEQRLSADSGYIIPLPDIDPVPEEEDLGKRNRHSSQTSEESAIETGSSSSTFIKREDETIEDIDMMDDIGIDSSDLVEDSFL
Nature of the assay: Inhibitory activity against PDGF-Ra phosphorylation by PDGF-AA stimulation using G292. The format is cell-based. The conditions noted are these: Pharmacological Test Example 1; > means inhibition at indicated concentration not more than 50%, < and << not less than 50%; read-out: PDGF (E) IC50. The method in brief: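 Phospho-PDGF-Ra ELISA: capture with PY-20 antiphosphotyrosine, detection with anti-PDGF-Ra and peroxidase secondary, read at 450 nm. Lysates came from G-292 osteosarcoma cells starved in 0.1% FBS, compound-treated 1 hr at 37° C, and stimulated with 50 ng/ml PDGF-AA for 5 min.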

The structures appear in SMILES notation. Bounds are passed on as bounds.

T1 sequence (P10721 26-976): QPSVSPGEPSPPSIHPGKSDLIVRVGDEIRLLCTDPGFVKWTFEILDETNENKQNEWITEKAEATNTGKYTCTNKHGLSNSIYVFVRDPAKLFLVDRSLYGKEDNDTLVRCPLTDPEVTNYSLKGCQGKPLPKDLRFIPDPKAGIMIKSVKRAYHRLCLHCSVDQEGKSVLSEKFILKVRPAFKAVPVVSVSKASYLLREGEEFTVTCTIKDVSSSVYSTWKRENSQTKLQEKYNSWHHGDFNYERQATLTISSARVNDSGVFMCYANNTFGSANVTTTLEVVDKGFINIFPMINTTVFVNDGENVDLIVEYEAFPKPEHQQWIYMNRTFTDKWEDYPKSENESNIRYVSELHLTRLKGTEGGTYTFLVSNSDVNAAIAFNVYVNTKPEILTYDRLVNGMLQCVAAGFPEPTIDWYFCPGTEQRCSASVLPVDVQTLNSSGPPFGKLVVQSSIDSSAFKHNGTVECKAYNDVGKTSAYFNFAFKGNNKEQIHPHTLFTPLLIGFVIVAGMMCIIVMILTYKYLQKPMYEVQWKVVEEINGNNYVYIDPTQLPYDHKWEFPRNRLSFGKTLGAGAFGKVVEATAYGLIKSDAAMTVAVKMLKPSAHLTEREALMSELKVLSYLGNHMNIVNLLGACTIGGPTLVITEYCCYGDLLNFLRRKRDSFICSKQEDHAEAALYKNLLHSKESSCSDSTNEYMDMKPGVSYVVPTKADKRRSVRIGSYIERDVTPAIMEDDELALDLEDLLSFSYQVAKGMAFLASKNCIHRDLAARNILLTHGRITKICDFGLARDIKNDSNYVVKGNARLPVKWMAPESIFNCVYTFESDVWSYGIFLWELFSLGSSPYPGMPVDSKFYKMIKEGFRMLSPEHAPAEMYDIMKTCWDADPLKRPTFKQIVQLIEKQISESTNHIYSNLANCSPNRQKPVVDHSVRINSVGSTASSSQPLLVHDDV

The term IC50 denotes the concentration at which inhibition is half-maximal. For `COc1cc2nccc(Oc3cc(C)c(NC(=O)OCCCSc4cc(C)ccc4C)cc3C)c2cc1OC` [Example 171, 3-[(2,5-Dimethylphenyl)sulfanyl]propyl N-{4-[(6,7-dimethoxy-4-quinolyl)oxy]-2,5-dimethylphenyl}carbamate], the IC50 in assay [1] was found to be 83 nM; in assay [2], 22 nM.

On to `COc1cc2ncnc(Oc3ccc(NC(=O)OCCCSc4cc(C)ccc4C)cc3)c2cc1OC` [Example 172, 3-[(2,5-Dimethylphenyl)sulfanyl]-propyl N-{4-[(6,7-dimethoxy-4-quinazolinyl)oxy]phenyl}carbamate], for which the IC50 in assay [1] came to 74 nM; in assay [2], 17 nM.

For `COc1cc2nccc(Oc3ccc(NC(=O)OCCCSc4ccccn4)c(C)c3C)c2cc1OC` [Example 173, 3-(2-Pyridylsulfanyl)propyl N-{4-[(6,7-dimethoxy-4-quinolyl)oxy]-2,3-dimethylphenyl}-carbamate], the IC50 was 37 nM in assay [1] and less than 10 nM in assay [2].

For the compound `COc1cc2nccc(Oc3cc(C)c(NC(=O)OCCCSc4ccccn4)cc3C)c2cc1OC` [Example 174, 3-(2-Pyridylsulfanyl)propyl N-{4-[(6,7-dimethoxy-4-quinolyl)oxy]-2,5-dimethylphenyl}-carbamate], the IC50 in assay [1] was 70 nM; in assay [2], less than 10 nM.

On to `COc1cc2ncnc(Oc3ccc(NC(=O)OCCCSc4ccccn4)cc3)c2cc1OC` [Example 175, 3-(2-Pyridylsulfanyl)propyl N-{4-[(6,7-dimethoxy-4-quinazolinyl)oxy]phenyl}carbamate], for which the values for the IC50 in assay [1] and in assay [2] were 45 nM and less than 10 nM, respectively.

In the case of `COc1cc2nccc(Oc3ccc(NC(=O)Sc4ccc(Cl)cc4C)cc3)c2cc1OC` [Example 176, 4-Chloro-2-methylphenyl{4-[(6,7-dimethoxy-4-quinolyl)oxy]anilino}methanethioate], the IC50 was less than 30 nM in assay [1] and 20 nM in assay [2].

As to `COc1cc2nccc(Oc3ccc(NC(=O)Sc4ccc(Cl)cc4C)c(C)c3C)c2cc1OC` [Example 177, 4-Chloro-2-methylphenyl{4-[(6,7-dimethoxy-4-quinolyl)oxy]-2,3-dimethylanilino}methanethioate], the IC50 in assay [1] was less than 30 nM; in assay [2], 19 nM.

Regarding `COc1cc2ncnc(Oc3ccc(NC(=O)OC(C)c4cccc(OC(F)(F)F)c4)cc3)c2cc1OC` (stereo not shown) [Example 183, 1-[3-(Trifluoromethoxy)phenyl]ethyl N-{4-[(6,7-dimethoxy-4-quinazolinyl)oxy]phenyl}carbamate], the IC50 in assay [1] was found to be 706 nM; in assay [2], 35 nM.

On to `CCCC(OC(=O)Nc1ccc(Oc2ccnc3cc(OC)c(OC)cc23)cc1)c1ccccc1` (stereo not shown) [Example 184, 1-Phenylbutyl N{4-[(6,7-dimethoxy-4-quinolyl)oxy]phenyl}carbamate], for which the IC50 worked out at 369 nM in assay [1] and 38 nM in assay [2].

As for `CCCC(OC(=O)Nc1ccc(Oc2ncnc3cc(OC)c(OC)cc23)cc1)c1ccccc1` (stereo not shown) [Example 187, 1-Phenylbutyl N-{4-[(6,7-dimethoxy-4-quinazolinyl)oxy]phenyl}carbamate], the IC50 in assay [1] is 561 nM; in assay [2] it was less than 10 nM.

On to `COc1cc2ncnc(Oc3ccc(NC(=O)OCCN(C)C)cc3)c2cc1OC` [Example 191, 2-(Dimethylamino)ethyl N-{4-[(6,7-dimethoxy-4-quinazolinyl)oxy]phenyl}carbamate], for which the IC50 stood at 503 nM in assay [1] and 84 nM in assay [2].

Consider `COc1cc2nccc(Oc3ccc(NC(=O)OC(C)c4cccc(N(C)C)c4)cc3)c2cc1OC` (stereo not shown) [Example 199, 1-[3-(Dimethylamino)phenyl]ethyl N-{4-[(6,7-dimethoxy-4-quinolyl)oxy]phenyl}carbamate], for which the IC50 in assay [1] came out at 807 nM; in assay [2] it was 35 nM.

Regarding `COc1cc2nccc(Oc3ccc(NC(=O)OC(C)c4cccc(N(C)C)c4)c(C)c3C)c2cc1OC` (stereo not shown) [Example 200, 1-[3-(Dimethylamino)phenyl]ethyl N-{4-[(6,7-dimethoxy-4-quinolyl)oxy]-2,3-dimethylphenyl}-carbamate], the concentration for half-maximal inhibition (IC50) is 329 nM in assay [1] and 31 nM in assay [2].

With `COc1cc2ncnc(Oc3ccc(NC(=O)OC(C)c4cccc(N(C)C)c4)cc3)c2cc1OC` (stereo not shown) [Example 202, 1-[3-(Dimethylamino)phenyl]ethyl N-{4-[(6,7-dimethoxy-4-quinazolinyl)oxy]phenyl}carbamate], the IC50 amounted to 610 nM in assay [1] and 10 nM in assay [2].

Consider `COc1cc2nccc(Oc3ccc(NC(=O)OCCOc4ccccc4F)cc3)c2cc1OC` [Example 203, 2-(2-Fluorophenoxy)ethyl N-{4-[(6,7-dimethoxy-4-quinolyl)oxy]phenyl}carbamate], for which the IC50 in assay [1] was determined as 169 nM; in assay [2], 25 nM.

In the case of `COc1cc2nccc(Oc3ccc(NC(=O)OCCOc4ccccc4F)c(C)c3C)c2cc1OC` [Example 204, 2-(2-Fluorophenoxy)ethyl N-{4-[(6,7-dimethoxy-4-quinolyl)oxy]-2,3-dimethylphenyl}carbamate], the values for the IC50 in assay [1] and in assay [2] were 79 nM and 28 nM, respectively.

`COc1cc2ncnc(Oc3ccc(NC(=O)OCCOc4ccccc4F)cc3)c2cc1OC` [Example 206, 2-(2-Fluorophenoxy)ethyl N-{4-[(6,7-dimethoxy-4-quinazolinyl)oxy]phenyl}carbamate]: the IC50 is 80 nM in assay [1] and 13 nM in assay [2].

Regarding `COc1cc2nccc(Oc3ccc(NC(=O)OCCOc4cccc(F)c4)cc3)c2cc1OC` [Example 207, 2-(3-Fluorophenoxy)ethyl N-{4-[(6,7-dimethoxy-4-quinolyl)oxy]phenyl}carbamate], the IC50 came out at 55 nM in assay [1] and 31 nM in assay [2].

`COc1cc2nccc(Oc3ccc(NC(=O)OCCOc4cccc(F)c4)c(C)c3C)c2cc1OC` [Example 208, 2-(3-Fluorophenoxy)ethyl N-{4-[(6,7-dimethoxy-4-quinolyl)oxy]-2,3-dimethylphenyl}carbamate]: the IC50 in assay [1] came to 53 nM; in assay [2], 18 nM.

For the compound `COc1cc2ncnc(Oc3ccc(NC(=O)OCCOc4cccc(F)c4)cc3)c2cc1OC` [Example 210, 2-(3-Fluorophenoxy)ethyl N-{4-[(6,7-dimethoxy-4-quinazolinyl)oxy]phenyl}carbamate], the values for the IC50 in assay [1] and in assay [2] were 95 nM and 16 nM, respectively.

For `COc1cc2ncnc(Oc3ccc(NC(=O)OCCCOc4ccccc4Cl)c(C)c3C)c2cc1OC` [Example 211, 3-(2-Chlorophenoxy)propyl N-{4-[(6,7-dimethoxy-4-quinazolinyl)oxy]-2,3-dimethylphenyl}-carbamate], the IC50 in assay [1] worked out at 43 nM; in assay [2] it was 17 nM.

Take `COc1cc2ncnc(Oc3ccc(NC(=O)OCCCOc4cccc(Cl)c4)c(C)c3C)c2cc1OC` [Example 212, 3-(3-Chlorophenoxy)propyl N-{4-[(6,7-dimethoxy-4-quinazolinyl)oxy]-2,3-dimethylphenyl}carbamate]: the IC50 in assay [1] came to 70 nM; in assay [2], 28 nM.

Turning to `COc1cc2ncnc(Oc3ccc(NC(=O)OCCCOc4ccc(Cl)cc4)c(C)c3C)c2cc1OC` [Example 213, 3-(4-Chlorophenoxy)propyl N-{4-[(6,7-dimethoxy-4-quinazolinyl)oxy]-2,3-dimethylphenyl}-carbamate], the values for the IC50 in assay [1] and in assay [2] were 61 nM and 21 nM, respectively.

Values taken from US7135466B2 (Kirin Beer Kabushiki Kaisha, priority 1999, dated 2006).
